Experimental data as given in the NIST ThermoML archive (doi:10.1021/je900550v).

Details: 101.33 kPa, Liquid; for speed of sound: Pulse-echo method; for mass density: Vibrating tube method

CC(C)C(=O)[O-].C[NH2+]CCO [2-hydroxy-N-methylethanaminium isobutyrate]
Details | mass density [kg/m3] | speed of sound [m/s] | viscosity [mPa·s]
278.15 K | 1056.12 | 1670.2 | –
278.4 K | 1055.96 | 1669.4 | –
278.65 K | 1055.8 | 1668.6 | –
278.9 K | 1055.64 | 1667.8 | –
279.15 K | 1055.48 | 1667 | –
279.4 K | 1055.32 | 1666.2 | –
279.65 K | 1055.16 | 1665.4 | –
279.9 K | 1055 | 1664.7 | –
280.15 K | 1054.85 | 1663.9 | –
280.4 K | 1054.68 | 1663.1 | –
280.65 K | 1054.52 | 1662.3 | –
280.9 K | 1054.36 | 1661.5 | –
281.15 K | 1054.2 | 1660.8 | –
281.4 K | 1054.04 | 1660 | –
281.65 K | 1053.88 | 1659.2 | –
281.9 K | 1053.72 | 1658.5 | –
282.15 K | 1053.56 | 1657.7 | –
282.4 K | 1053.4 | 1657 | –
282.65 K | 1053.24 | 1656.2 | –
282.9 K | 1053.08 | 1655.4 | –
283.15 K | 1052.92 | 1654.7 | –
283.4 K | 1052.76 | 1653.9 | –
283.65 K | 1052.6 | 1653.2 | –
283.9 K | 1052.43 | 1652.4 | –
284.15 K | 1052.27 | 1651.7 | –
284.4 K | 1052.11 | 1650.9 | –
284.65 K | 1051.95 | 1650.2 | –
284.9 K | 1051.79 | 1649.4 | –
285.15 K | 1051.63 | 1648.7 | –
285.4 K | 1051.47 | 1647.9 | –
285.65 K | 1051.31 | 1647.2 | –
285.9 K | 1051.14 | 1646.4 | –
286.15 K | 1050.98 | 1645.9 | –
286.4 K | 1050.82 | 1645.2 | –
286.65 K | 1050.66 | 1644.4 | –
286.9 K | 1050.49 | 1643.7 | –
287.15 K | 1050.33 | 1642.9 | –
287.4 K | 1050.17 | 1642.2 | –
287.65 K | 1050.01 | 1641.5 | –
287.9 K | 1049.85 | 1640.7 | –
288.15 K | 1049.68 | 1640 | 301.35
288.4 K | 1049.52 | 1639.3 | –
288.65 K | 1049.36 | 1638.5 | –
288.9 K | 1049.19 | 1637.8 | –
289.15 K | 1049.03 | 1637.1 | –
289.4 K | 1048.87 | 1636.3 | –
289.65 K | 1048.72 | 1635.6 | –
289.9 K | 1048.56 | 1634.9 | –
290.15 K | 1048.41 | 1634.2 | –
290.4 K | 1048.25 | 1633.4 | –
290.65 K | 1048.09 | 1632.7 | –
290.9 K | 1047.94 | 1632 | –
291.15 K | 1047.79 | 1631.2 | –
291.4 K | 1047.63 | 1630.5 | –
291.65 K | 1047.47 | 1629.8 | –
291.9 K | 1047.31 | 1629.1 | –
292.15 K | 1047.16 | 1628.4 | –
292.4 K | 1047 | 1627.7 | –
292.65 K | 1046.84 | 1626.9 | –
292.9 K | 1046.68 | 1626.2 | –
293.15 K | 1046.53 | 1625.5 | 220.69
293.4 K | 1046.37 | 1624.8 | –
293.65 K | 1046.21 | 1624.1 | –
293.9 K | 1046.06 | 1623.4 | –
294.15 K | 1045.9 | 1622.7 | –
294.4 K | 1045.74 | 1622 | –
294.65 K | 1045.59 | 1621.2 | –
294.9 K | 1045.43 | 1620.5 | –
295.15 K | 1045.27 | 1619.8 | –
295.4 K | 1045.11 | 1619.1 | –
295.65 K | 1044.96 | 1618.4 | –
295.9 K | 1044.8 | 1617.7 | –
296.15 K | 1044.63 | 1617 | –
296.4 K | 1044.48 | 1616.3 | –
296.65 K | 1044.32 | 1615.6 | –
296.9 K | 1044.17 | 1614.9 | –
297.15 K | 1044.01 | 1614.2 | –
297.4 K | 1043.84 | 1613.4 | –
297.65 K | 1043.68 | 1612.7 | –
297.9 K | 1043.52 | 1612 | –
298.15 K | 1043.37 | 1611.3 | 163.08
298.4 K | 1043.2 | 1610.6 | –
298.65 K | 1043.05 | 1609.9 | –
298.9 K | 1042.89 | 1609.2 | –
299.15 K | 1042.73 | 1608.5 | –
299.4 K | 1042.57 | 1607.8 | –
299.65 K | 1042.41 | 1607.1 | –
299.9 K | 1042.25 | 1606.3 | –
300.15 K | 1042.09 | 1605.6 | –
300.4 K | 1041.93 | 1604.9 | –
300.65 K | 1041.77 | 1604.2 | –
300.9 K | 1041.61 | 1603.5 | –
301.15 K | 1041.45 | 1602.8 | –
301.4 K | 1041.29 | 1602.1 | –
301.65 K | 1041.13 | 1601.4 | –
301.9 K | 1040.96 | 1600.7 | –
302.15 K | 1040.81 | 1600 | –
302.4 K | 1040.64 | 1599.3 | –
302.65 K | 1040.49 | 1598.6 | –
302.9 K | 1040.32 | 1597.8 | –
303.15 K | 1040.17 | 1597.2 | 124.67
303.4 K | 1040 | 1596.4 | –
303.65 K | 1039.84 | 1595.7 | –
303.9 K | 1039.68 | 1595 | –
304.15 K | 1039.52 | 1594.3 | –
304.4 K | 1039.36 | 1593.6 | –
304.65 K | 1039.19 | 1592.9 | –
304.91 K | 1039.03 | 1592.2 | –
305.15 K | 1038.87 | 1591.5 | –
305.4 K | 1038.71 | 1590.8 | –
305.65 K | 1038.55 | 1590.1 | –
305.9 K | 1038.39 | 1589.4 | –
306.15 K | 1038.23 | 1588.7 | –
306.4 K | 1038.06 | 1588 | –
306.65 K | 1037.9 | 1587.3 | –
306.9 K | 1037.74 | 1586.6 | –
307.15 K | 1037.58 | 1585.9 | –
307.4 K | 1037.41 | 1585.2 | –
307.65 K | 1037.25 | 1584.5 | –
307.9 K | 1037.09 | 1583.8 | –
308.15 K | – | – | 98.28
